Laboratory results reported in patent US12187710B2, “Salt of Syk inhibitor and crystalline form thereof” (CHIA TAI TIANQING PHARMACEUTICAL GROUP CO., LTD., priority 2018, dated 2025).
pIC50: −log10 of the molar value. Counter-ions that a name gives are not always drawn.

How the values were obtained:
[1] = Stability of crystalline form at high temperature, high humidity and illumination (XRPD); type: physicochemical
From the text: The vials in which the samples were placed at high temperature and high humidity were sealed with aluminum foil, and small holes were provided in the aluminum foil to ensure that the samples were sufficiently contacted with atmospheric air. The vial in which the sample was placed under strong light was placed open without sealing with aluminum foil. The samples placed under different conditions were taken and tested for XRPD spectrum on day 5 and day 10.

[2] = Hygroscopicity by dynamic vapor sorption (DVS); type: physicochemical
Experimental: Instrument: SMS DVS Advantage;
The DVS parameters are as follows:
Balancing: dm/dt=0.01%/min (shortest: 10 min, longest: 180 min)
drying: drying at 0% RH for 120 min
RH (%) test gradient: 10%
Range of RH (%) test gradient: 0%-90%-0%

[3] = Stability of crystalline form suspended in organic solvent (XRPD); type: physicochemical; settings: methanol, ethanol, ethyl acetate, acetone, acetonitrile, tetrahydrofuran, 1,4-dioxane, n-hexane; 20° C. and 50° C., 24 h
Experimental: After being added with methanol (4 mL), the glass vial was placed on a magnetic stirrer, and the mixture was stirred at 20° C. and 50° C., each for 24 h.
According to the above method, ethanol, ethyl acetate, acetone, acetonitrile, tetrahydrofuran, 1,4-dioxane and n-hexane were used as solvents to conduct parallel tests.

AKT phosphorylation = assay: In vitro test of inhibition on AKT phosphorylation in IgM-stimulated Ramos cells (ELISA); type: cell-based; settings: anti-human IgM stimulation
From the text: 5.1 Purpose of experiment: to detect the protein kinase AKT phosphorylation in cells by enzyme-linked immunosorbent assay (ELISA), and evaluate the inhibition of the compound on the AKT phosphorylation by taking the half-inhibitory concentration (IC50) value of the compound as an index. […]

Row | Crystalline form ([1]; Day 0 (initial), XRPD) | Crystalline form ([1]; High humidity (room temperature/relative humidity 92.5%, open), Day 5, XRPD) | Crystalline form ([1]; High humidity (room temperature/relative humidity 92.5%, open), Day 10, XRPD) | Crystalline form ([1]; High temperature (60° C., open), Day 5, XRPD) | Crystalline form ([1]; High temperature (60° C., open), Day 10, XRPD) | Crystalline form ([1]; Illumination (total illuminance of 1.2 × 10^6 Lux·hr/near UV energy of 200 w·hr/m^2, open), XRPD) | Stability under high temperature, high humidity and illumination ([1]; overall conclusion) | ΔW (DVS weight gain) ([2]; 25° C., RH 0%-90%-0%) [%] | Hygroscopicity ([2]; 25±1° C. and 80±2% RH) | XRPD spectrum after suspension in solvent [3] | pIC50 (AKT phosphorylation) | SMILES
1 | Form A crystal | Form A crystal | Form A crystal | Form A crystal | Form A crystal | Form A crystal | good stability | 1.371 | less hygroscopic | doesn't change |  | Cn1c(=O)c(Nc2ccc(N3CCN(C4COC4)CC3)cn2)cc2c(F)c(-c3cc[nH]n3)ccc21 [5-fluoro-1-methyl-3-((5-(4-(oxetan-3-yl)piperazin-1-yl)pyridin-2-yl)amino)-6-(1H-pyrazol-3-yl)quinolin-2(1H)-one hydrochloride]
2 |  |  |  |  |  |  |  |  |  |  | 6.77 | Cn1c(=O)c(Nc2ccc(N3CCN(C4COC4)CC3)cn2)cc2c(F)c(-c3cc[nH]n3)ccc21 [Compound of formula I, 5-fluoro-1-methyl-3-((5-(4-(oxetan-3-yl)piperazin-1-yl)pyridin-2-yl)amino)-6-(1H-pyrazol-3-yl)quinolin-2(1H)-one]
